The target of test [1] is human immuno proteasome (LMP7) (Homo sapiens (Human), UniProt P28062). The experiment in a line: Determination of LMP7 activity (fluorescence intensity assay, Suc-LLVY-AMC). The class given is biochemical. Here is the method:
Determination of LMP7 Activity:
Measurement of LMP7 inhibition is performed in 384 well format based on fluorescence intensity assay.
(§1) Purified human immuno proteasome (0.25 nM) and serial diluted compounds in DMSO (range of concentrations from 30 μM to 15 pM) or controls are incubated for 20 minutes or 120 minutes (long incubation) at 25° C. in assay buffer containing 50 mM Tris pH 7.4, 0.03% SDS, 1 mM EDTA and 1% DMSO. The reaction is initiated by the addition of the fluorogenic peptide substrate, Suc-LLVY-AMC (Bachem 1-1395), at a concentration of 40 μM. After 60 minutes of incubation at 37° C., fluorescence intensity is measured at λex=350 nm and λem=450 nm with a fluorescence reader (Perkin Elmer Envision reader or equivalent).
(§2) Unless indicated otherwise the results are obtained after incubation for 20 minutes.

The target of test [2] is human constitutive proteasome (Beta5) (Homo sapiens (Human), UniProt P28074). The experiment in a line: Determination of Beta5 activity (fluorescence intensity assay, Suc-LLVY-AMC). The class given is biochemical. On the procedure:
Determination of Beta5 Activity:
Measurement of Beta5 inhibition is performed in 384 well format based on fluorescence intensity assay.
as §1, with “constitutive” for “immuno”, “(1.25” for “(0.25”
as §2

The mark [3] stands for this setting: LMP7 versus Beta5, long incubation (120 min).
Where [4] appears, read: LMP7 versus Beta5, incubation for 20 minutes.

Take `C=CC(=O)N(CC)CC(=O)N[C@@H](Cc1ccc2ccccc2c1)B(O)O` [Compound No. 81, [(1R)-1-[[2-[ethyl(prop-2-enoyl)amino]acetyl]amino]-2-(2-naphthyl)ethyl]boronic Acid]: the “Selectivity LMP7 vs Beta5” value in test [1] (setting [3]) is listed as “+++++ (Selectivity ≥ 150)”. Also, the IC50 in test [1] (long incubation (120 min)) is under 50 nM; in test [2] (long incubation (120 min)), over 5000 nM.

For `C=CC(=O)N(CC(=O)N[C@@H](Cc1ccsc1)B(O)O)c1ccc(CC)cc1` [Compound No. 96, [(1R)-1-[[2-(4-ethyl-N-prop-2-enoyl-anilino)acetyl]amino]-2-(3-thienyl)ethyl]boronic Acid], the “Selectivity LMP7 vs Beta5” value in test [1] (setting [3]) is given as “+++++ (Selectivity ≥ 150)”. In addition, the IC50 was under 50 nM in test [1] (long incubation (120 min)) and 500 to 5000 nM in test [2] (long incubation (120 min)).

In the case of `C=CC(=O)N(CC(=O)N[C@@H](Cc1ccsc1)B(O)O)c1cccc(CC)c1` [Compound No. 94, [(1R)-1-[[2-(3-ethyl-N-prop-2-enoyl-anilino)acetyl]amino]-2-(3-thienyl)ethyl]boronic Acid], the “Selectivity LMP7 vs Beta5” value in test [1] (setting [3]) was “+++++ (Selectivity ≥ 150)”. Further, the IC50 in test [1] (long incubation (120 min)) is under 50 nM; in test [2] (long incubation (120 min)), over 5000 nM.

Turning to `C=CC(=O)N(C)CC(=O)N[C@@H](Cc1ccc(C)c(C)c1C)B(O)O` [Compound No. 74, [(1R)-1-[[2-[methyl(prop-2-enoyl)amino]acetyl]amino]-2-(2,3,4-trimethylphenyl)ethyl]boronic Acid], the “Selectivity LMP7 vs Beta5” value in test [1] (setting [3]) is listed as “+++++ (Selectivity ≥ 150)”. Besides, the IC50 is under 50 nM in test [1] (long incubation (120 min)) and over 5000 nM in test [2] (long incubation (120 min)).

Consider `C=CC(=O)N(C)CC(=O)N[C@@H](Cc1ccc(Cl)c(Cl)c1)B(O)O` [Compound No. 66, [(1R)-2-(3,4-dichlorophenyl)-1-[[2-[methyl(prop-2-enoyl)amino]acetyl]amino]ethyl]boronic Acid], for which the “Selectivity LMP7 vs Beta5” value in test [1] (setting [3]) was “+++++ (Selectivity ≥ 150)”. The values for the IC50 in test [1] (long incubation (120 min)) and in test [2] (long incubation (120 min)) were under 50 nM and over 5000 nM, respectively.

Take `C/C=C/C(=O)N(CC)CC(=O)N[C@@H](Cc1ccc(C)cc1C)B(O)O` [Compound No. 23, [(1R)-1-[[2-[[(E)-but-2-enoyl]-ethyl-amino]acetyl]amino]-2-(2,4-dimethylphenyl)ethyl]boronic Acid]: the “Selectivity LMP7 vs Beta5” value in test [1] (setting [4]) is “+++ (70 ≤ 100)”. The IC50 is under 50 nM in test [1] (incubation for 20 minutes) and 500 to 5000 nM in test [2] (incubation for 20 minutes).

As for `C=CC(=O)N(C)[C@@H](C)C(=O)N[C@@H](Cc1ccc(C)c(C)c1)B(O)O` [Compound No. 68, [(1R)-2-(3,4-dimethylphenyl)-1-[[(2S)-2-[methyl(prop-2-enoyl)amino]propanoyl]amino]ethyl]boronic Acid], the “Selectivity LMP7 vs Beta5” value in test [1] (setting [3]) is reported as “+++++ (Selectivity ≥ 150)”. Also, the values for the IC50 in test [1] (long incubation (120 min)) and in test [2] (long incubation (120 min)) were 50 to 500 nM and over 5000 nM, respectively.

Turning to `C=CC(=O)N(CC#N)CC(=O)N[C@@H](Cc1ccc(C)cc1C)B(O)O` [Compound No. 56, [(1R)-1-[[2-[cyanomethyl(prop-2-enoyl)amino]acetyl]-amino]-2-(2,4-dimethylphenyl)ethyl]boronic Acid], the “Selectivity LMP7 vs Beta5” value in test [1] (setting [3]) was “+++++ (Selectivity ≥ 150)”. The IC50 in test [1] (long incubation (120 min)) was under 50 nM; in test [2] (long incubation (120 min)), over 5000 nM.

In the case of `C=CC(=O)N(CC(=O)N[C@@H](Cc1cccc(F)c1)B(O)O)c1ccccc1F` [Compound No. 98, [(1R)-2-(3-fluorophenyl)-1-[[2-(2-fluoro-N-prop-2-enoyl-anilino)acetyl]amino]ethyl]boronic Acid], the “Selectivity LMP7 vs Beta5” value in test [1] (setting [3]) was “+++++ (Selectivity ≥ 150)”. Further, the values for the IC50 in test [1] (long incubation (120 min)) and in test [2] (long incubation (120 min)) were under 50 nM and over 5000 nM, respectively.

For the compound `C=CC(=O)N(CC(=O)N[C@@H](Cc1ccc(C)c(C)c1)B(O)O)c1ccccc1` [Compound No. 17, [(1R)-2-(3,4-dimethylphenyl)-1-[[2-(N-prop-2-enoylanilino)acetyl]-amino]ethyl]boronic Acid], in test [1] (setting [4]), the “Selectivity LMP7 vs Beta5” value is “+++ (70 ≤ 100)”. The half-maximal inhibitory concentration (IC50) in test [1] (incubation for 20 minutes) is under 50 nM; in test [2] (incubation for 20 minutes) it was 500 to 5000 nM.

Broadly, the IC50 is the concentration that inhibits the measured activity by half.

The values above are taken from patent US10669289B2, “Boronic acid derivatives” (MERCK PATENT GMBH, priority 2014, dated 2020).
